Test results reported in article PMC9299503, “Catalytic Control of Spiroketal Formation in Rubromycin Polyketide Biosynthesis” (Angewandte Chemie (International Ed. in English), 2021).

How the values were obtained:
GrhO5 [1] = molecular target: T1, GrhO5 (Streptomyces sp. JP95, UniProt Q8KSX7); assay: X-ray crystal structure, […] Å; format: binding; conditions: ligand-free acceptor state, FAD in OUT
T1 construct: crystallised; domains I-III, residues 1-537 described; construct details only in supplement
T1 sequence (Q8KSX7 1-537): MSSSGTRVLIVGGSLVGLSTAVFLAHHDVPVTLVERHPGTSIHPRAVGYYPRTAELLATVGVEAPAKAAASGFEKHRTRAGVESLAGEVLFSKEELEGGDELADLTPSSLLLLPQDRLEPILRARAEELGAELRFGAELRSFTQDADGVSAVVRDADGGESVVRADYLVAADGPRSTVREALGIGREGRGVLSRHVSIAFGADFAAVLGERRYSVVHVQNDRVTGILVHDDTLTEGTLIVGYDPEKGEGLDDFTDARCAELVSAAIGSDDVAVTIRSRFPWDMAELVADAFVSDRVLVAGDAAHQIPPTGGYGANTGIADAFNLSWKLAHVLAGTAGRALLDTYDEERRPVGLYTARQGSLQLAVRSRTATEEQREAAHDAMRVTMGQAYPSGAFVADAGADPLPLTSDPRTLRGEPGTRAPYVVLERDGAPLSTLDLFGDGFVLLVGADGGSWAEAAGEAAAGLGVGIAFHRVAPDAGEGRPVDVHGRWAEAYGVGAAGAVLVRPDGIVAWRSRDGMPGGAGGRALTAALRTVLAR

GrhO5 [2] = molecular target: T1, GrhO5; assay: X-ray crystal structure, crystals soaked with […]; format: binding; conditions: FAD in OUT, reducible state; bound ligand may be 3 or its reduced form 5 (dihydrocollinone)

| SMILES | X-ray crystal structure, 1.75 Å (GrhO5 [1]) | X-ray crystal structure, crystals soaked with 3 (GrhO5 [2]) |
| --- | --- | --- |
| Cc1cc2nc3c(=O)[nH]c(=O)nc-3n(C[C@H](O)[C@H](O)[C@H](O)COP(=O)(O)OP(=O)(O)OC[C@H]3O[C@@H](n4cnc5c(N)ncnc54)[C@H](O)[C@@H]3O)c2cc1C [FAD] | domains I and II are essential for FAD‐ and substrate binding, respectively |  |
| COc1cc(=O)c2c(=O)c3c(c(=O)c=2c1=O)=C(O)[C@@]1(O)c2c(cc4cc(C)oc(=O)c4c2O)CC[C@@]1(O)C=3O [compound 3, collinone] |  | revealed clear electron density in the open, solvent‐exposed substrate‐binding site |
